How the values were obtained:
Assay in all cases: Cell viability assay (ATPlite)
Assay type in all cases: cell-based
TCCSUP = conditions: Homo sapiens, TCC-SUP; TCCSUP cell line, 72 hours incubation
Procedure: (§1) Intracellular ATP content was used as an indirect readout of cell number using the ATPlite 1Step bioluminescence assay (Revvity, Groningen, the Netherlands). Cells were seeded in 384-well plates at an optimized density to ensure unrestricted growth and maximal signal at the end of the experiment. After 24 hours of incubation, the starting cell number was determined by adding ATPlite to each well of a control plate and recording luminescence on an Envision multimode reader (Revvity, Waltham, MA, USA) ([4]). Compounds were diluted in DMSO in √10-fold steps from 10 mmol/L stocks to obtain 9-point dilution series. After further 31.6-fold dilution in 20 mmol/L HEPES (pH 7.4), the dilution series were added in duplicate to the cells in the 384-well plates to determine the effect of the compounds on cell viability. Vehicle-treated controls were included to determine maximal cell proliferation. The final DMSO concentration was 0.4% (v/v) in all wells. After incubation for an additional 72 hours, the ATP content was measured in each well using ATPlite. The luminescent signal in inhibitor-treated wells was normalized to vehicle-treated control wells to determine the percentage viability at each concentration. Cell doublings were determined by relating the cell number of vehicle-treated controls to the starting cell number for each cell line. The viability assay of a cell line was repeated when the cell doubling deviated > 2-fold from the historic doubling as determined by multiple independent experiments. The quality of the complete assay was determined by a parallel test with doxorubicin on two cell lines. IC50 values were calculated by fitting a four-parameter logistic model to the percentage viability values using IDBS XLfit5 (IDBS, Guildford, United Kingdom). All curves were visually inspected and submitted to an F-test as implemented in IDBS XLfit5. Curves with an F-value above 1.5 were invalidated and IC50 values were maximized at the highest concentration.

G-361 = conditions: Homo sapiens; G-361 cell line, 72 hours incubation
Procedure: as §1

RS4;11 = conditions: Homo sapiens; RS4;11 cell line, 72 hours incubation
Procedure: as §1

DLD-1 = conditions: Homo sapiens; DLD-1 cell line, 72 hours incubation
Procedure: as §1

HEC-1 = conditions: Homo sapiens; HEC-1 cell line, 72 hours incubation
Procedure: as §1

H9 = conditions: Homo sapiens; H9 cell line, 72 hours incubation
Procedure: as §1

DoHH2 = conditions: Homo sapiens, DOHH-2; DoHH2 cell line, 72 hours incubation
Procedure: as §1

FaDu = conditions: Homo sapiens; FaDu cell line, 72 hours incubation
Procedure: as §1

Hep-G2 = conditions: Homo sapiens, HepG2; Hep-G2 cell line, 72 hours incubation
Procedure: as §1

RKO = conditions: Homo sapiens; RKO cell line, 72 hours incubation
Procedure: as §1

A-498 = conditions: Homo sapiens, A498; A-498 cell line, 72 hours incubation
Procedure: as §1

MSTO-211H = conditions: Homo sapiens; MSTO-211H cell line, 72 hours incubation
Procedure: as §1

HT = conditions: Homo sapiens; HT cell line, 72 hours incubation
Procedure: as §1

BT-549 = conditions: Homo sapiens; BT-549 cell line, 72 hours incubation
Procedure: as §1

MM1.S = conditions: Homo sapiens; MM1.S cell line, 72 hours incubation
Procedure: as §1

AU565 = conditions: Homo sapiens; AU565 cell line, 72 hours incubation
Procedure: as §1

MDA-MB-453 = conditions: Homo sapiens; MDA-MB-453 cell line, 72 hours incubation
Procedure: as §1

HEC-1-B = conditions: Homo sapiens; HEC-1-B cell line, 72 hours incubation
Procedure: as §1

NCI-H2052 = conditions: Homo sapiens; NCI-H2052 cell line, 72 hours incubation
Procedure: as §1

HL-60 = conditions: Homo sapiens; HL-60 cell line, 72 hours incubation
Procedure: as §1

DoTc2 4510 = conditions: Homo sapiens; DoTc2 4510 cell line, 72 hours incubation
Procedure: as §1

TOV-112D = conditions: Homo sapiens, TOV112D; TOV-112D cell line, 72 hours incubation
Procedure: as §1

SW48 = conditions: Homo sapiens; SW48 cell line, 72 hours incubation
Procedure: as §1

NCI-H661 = conditions: Homo sapiens; NCI-H661 cell line, 72 hours incubation
Procedure: as §1

OVCAR-3 = conditions: Homo sapiens; OVCAR-3 cell line, 72 hours incubation
Procedure: as §1

A-704 = conditions: Homo sapiens, A704; A-704 cell line, 72 hours incubation
Procedure: as §1

HCT 116 = conditions: Homo sapiens; HCT 116 cell line, 72 hours incubation
Procedure: as §1

RL = conditions: Homo sapiens; RL cell line, 72 hours incubation
Procedure: as §1

DU4475 = conditions: Homo sapiens, DU-4475; DU4475 cell line, 72 hours incubation
Procedure: as §1

NCI-H1650 = conditions: Homo sapiens; NCI-H1650 cell line, 72 hours incubation
Procedure: as §1

NCI-H1975 = conditions: Homo sapiens; NCI-H1975 cell line, 72 hours incubation
Procedure: as §1

**Q.** What does the source list for `O=C(c1ccc(Oc2ccccc2)cc1Cl)c1c[nH]c2ncnc(N[C@@H]3CC[C@@H](CO)OC3)c12` [nemtabrutinib]?
**A.** IC50 (TCCSUP): 7.7 µM; IC50 (G-361): 1.08 µM; IC50 (RS4;11): 7.8 µM; IC50 (DLD-1): 4.6 µM; IC50 (HEC-1): 4.58 µM; IC50 (H9): 1.32 µM; IC50 (DoHH2): 0.486 µM; IC50 (FaDu): 1.3 µM; IC50 (Hep-G2): 0.979 µM; IC50 (RKO): 1.22 µM; IC50 (A-498): 6.4 µM; IC50 (MSTO-211H): 3.86 µM; IC50 (HT): > 31.6 µM; IC50 (BT-549): 8.07 µM; IC50 (MM1.S): 5.48 µM; IC50 (AU565): 3.26 µM; IC50 (MDA-MB-453): 5.32 µM; IC50 (HEC-1-B): 0.376 µM; IC50 (NCI-H2052): 5.24 µM; IC50 (HL-60): 2.18 µM; IC50 (DoTc2 4510): 1.41 µM; IC50 (TOV-112D): 2.76 µM; IC50 (SW48): 0.445 µM; IC50 (NCI-H661): 2.38 µM; IC50 (OVCAR-3): 0.578 µM; IC50 (A-704): 16.3 µM; IC50 (HCT 116): 1.65 µM; IC50 (RL): 4.06 µM; IC50 (DU4475): 1.13 µM; IC50 (NCI-H1650): 9.8 µM; IC50 (NCI-H1975): 2.31 µM

— article PMC12586182 (Frontiers in Oncology, 2025)
